Key:
[1] = target: T1, Proteasome subunit beta type-1 (Homo sapiens, UniProt P20618); assay: Inhibition of PGPH activity of human 20S proteasome using (Z)-LLE-bNA as substrate by fluorometric method
T1 sequence (P20618 whole entry): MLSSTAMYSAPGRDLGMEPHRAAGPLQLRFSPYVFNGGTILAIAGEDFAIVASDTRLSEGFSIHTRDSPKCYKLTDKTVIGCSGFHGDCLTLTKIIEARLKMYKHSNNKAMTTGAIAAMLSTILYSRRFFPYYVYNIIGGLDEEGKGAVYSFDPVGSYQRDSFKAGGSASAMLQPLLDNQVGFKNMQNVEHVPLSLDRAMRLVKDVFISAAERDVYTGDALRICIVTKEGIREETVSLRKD

[2] = target: Proteasome subunit beta type-2 (Homo sapiens, UniProt P49721); assay: Inhibition of trypsin-like activity of human 20S proteasome using Bz-VGR-AMC as substrate by fluorometric method
Proteasome subunit beta type-2, sequence (P49721 whole entry): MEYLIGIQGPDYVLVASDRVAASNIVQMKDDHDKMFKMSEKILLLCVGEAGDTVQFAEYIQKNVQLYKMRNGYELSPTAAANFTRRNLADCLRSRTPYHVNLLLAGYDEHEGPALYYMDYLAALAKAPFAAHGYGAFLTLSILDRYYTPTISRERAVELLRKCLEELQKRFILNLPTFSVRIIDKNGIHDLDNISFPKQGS

| IC50 [1] [µM] | IC50 [2] [µM] | Structure (SMILES) |
| --- | --- | --- |
| 35 |  | CC[C@H](C)[C@H](NC(=S)Nc1cccc([N+](=O)[O-])c1)C(=O)N[C@H](Cc1ccccc1)C(=O)Nc1cccc(C(F)(F)F)c1 |
| 22.6 |  | CC[C@H](C)[C@H](/N=C(/Nc1cccc(C(F)(F)F)c1)SC)C(=O)N[C@H](Cc1ccccc1)C(=O)Nc1cccc(C(F)(F)F)c1 |
| 22.7 | > 50 | CC[C@H](C)[C@H](NC(=S)Nc1ccc(C(F)(F)F)cc1)C(=O)N[C@H](Cc1ccccc1)C(=O)Nc1cccc(Br)c1 |
